Laboratory results: patent US20240083857A1, “2-Methyl-Quinazolines” (Bayer Pharma Aktiengesellschaft, priority 2017, published 2024)

Tests used:
[1] = molecular target: human SOS1 (nucleotide exchange of K-Ras^G12C) (Homo sapiens, UniProt Q07889); assay: Biochemical assay 2: K-Ras^G12C activation assay by hSOS1 at high GTP concentration (HTRF); conditions: high GTP; for IC50: read-out: Assay 2 (KRAS-Activation by SOS high GTP) activity expressed as IC50; for inhibition at 20 µM: read-out: Assay 2 (KRAS-Activation by SOS high GTP) activity expressed as % inhibition at 20 μM
[2] = molecular target: K-Ras^G12C : hSOS1 interaction (Homo sapiens, UniProt Q07889); assay: Biochemical assay 1: K-Ras^G12C interaction assay with hSOS1 (HTRF); assay type: binding; conditions: for IC50: read-out: Assay 1 (KRAS-SOS Interaction) activity expressed as IC50

| SMILES | IC50 [1] | IC50 [2] | inhibition at 20 µM [1] | inhibition at 20 µM ([2]; read-out: Assay 1 (KRAS-SOS Interaction) activity expressed as % inhibition at 20 μM) |
| --- | --- | --- | --- | --- |
| COc1cc2nc(C)nc(NC(C)c3cccc(Oc4ccccc4)c3)c2cc1OC (single isomer, unassigned; enantiomer 1) [Example 228, 6,7-dimethoxy-2-methyl-N-[1-(3-phenoxyphenyl)ethyl]quinazolin-4-amine, Enantiomer 1] | 647 nM | 569 nM |  |  |
| COc1cc2nc(C)nc(NC(C)c3cccc4cccnc34)c2cc1OC (single isomer, unassigned; enantiomer 1) [Example 230, 6,7-dimethoxy-2-methyl-N-[1-(quinolin-8-yl)ethyl]quinazolin-4-amine, Enantiomer 1] | 6690 nM | 4900 nM |  |  |
| COc1cc2nc(C)nc(N[C@H](C)c3cccc(Cl)c3)c2cc1OC [Example 2, N-[(1R)-1-(3-chlorophenyl)ethyl]-6,7-dimethoxy-2-methylquinazolin-4-amine] | 207 nM | 127 nM |  |  |
| COC(=O)c1cc2c(C(C)Nc3nc(C)nc4cc(OC)c(OC)cc34)cccc2s1 (stereo not drawn) [Example 3, methyl 4-{1-[(6,7-dimethoxy-2-methylquinazolin-4-yl)amino]ethyl}-1-benzothiophene-2-carboxylate] | 115 nM | 113 nM |  |  |
| COc1cc2nc(C)nc(NC(C)c3cccc4ccoc34)c2cc1OC (stereo not drawn) [Example 4, N-[1-(1-benzofuran-7-yl)ethyl]-6,7-dimethoxy-2-methylquinazolin-4-amine] | 243 nM | 161 nM |  |  |
| COc1cc2nc(C)nc(NC(C)c3ccc(F)c4[nH]ncc34)c2cc1OC (stereo not drawn) [Example 5, N-[1-(7-fluoro-1H-indazol-4-yl)ethyl]-6,7-dimethoxy-2-methylquinazolin-4-amine] | 1300 nM | 1710 nM |  |  |
| COc1cc2nc(C)nc(NC(C)c3cc(F)cc4[nH]ncc34)c2cc1OC (stereo not drawn) [Example 6, N-[1-(6-fluoro-1H-indazol-4-yl)ethyl]-6,7-dimethoxy-2-methylquinazolin-4-amine] | 1860 nM | 2280 nM |  |  |
| COc1cc2nc(C)nc(NC(C)c3cccc4cn(C)nc34)c2cc1OC (stereo not drawn) [Example 8, 6,7-dimethoxy-2-methyl-N-[1-(2-methyl-2H-indazol-7-yl)ethyl]quinazolin-4-amine] | 19800 nM | 18200 nM |  |  |
| COc1cc2nc(C)nc(NC(C)c3cccc4nn(C)cc34)c2cc1OC (stereo not drawn) [Example 9, 6,7-dimethoxy-2-methyl-N-[1-(2-methyl-2H-indazol-4-yl)ethyl]quinazolin-4-amine] | 1370 nM | 1520 nM |  |  |
| COc1cc2nc(C)nc(NC(C)c3cccc4cnn(C)c34)c2cc1OC (stereo not drawn) [Example 10, 6,7-dimethoxy-2-methyl-N-[1-(1-methyl-1H-indazol-7-yl)ethyl]quinazolin-4-amine] | 1270 nM | 1180 nM |  |  |
| COc1cc2nc(C)nc(NC(C)c3cccc4c3CCCC4)c2cc1OC (stereo not drawn) [Example 11, 6,7-dimethoxy-2-methyl-N-[1-(5,6,7,8-tetrahydronaphthalen-1-yl)ethyl]quinazolin-4-amine] | 221 nM | 203 nM |  |  |
| COc1cc2nc(C)nc(N[C@H](C)c3ccc(F)cc3)c2cc1OC [Example 12, N-[(1R)-1-(4-fluorophenyl)ethyl]-6,7-dimethoxy-2-methylquinazolin-4-amine] | 578 nM | 335 nM |  |  |
| COc1cc2nc(C)nc(NC(C)c3cccc4[nH]nc(C)c34)c2cc1OC (stereo not drawn) [Example 13, 6,7-dimethoxy-2-methyl-N-[1-(3-methyl-1H-indazol-4-yl)ethyl]quinazolin-4-amine] | 2650 nM | 2020 nM |  |  |
| COc1cc2nc(C)nc(NC(C)c3cc4cccc(O)c4o3)c2cc1OC (stereo not drawn) [Example 28, 2-{-[(6,7-dimethoxy-2-methyquinazolin-4-yl)amino]ethyl}-1-benzofuran-7-ol] |  |  | 8% | 40% |
| COC(=O)c1ccccc1-c1ccc(C(C)Nc2nc(C)nc3cc(OC)c(OC)cc23)s1 (stereo not drawn) [Example 178, methyl 2-(5-{1-[(6,7-dimethoxy-2-methylquinazolin-4-yl)amino]ethyl}thiophen-2-yl)benzoate] | 5110 nM | 1430 nM |  |  |
| COc1cc2nc(C)nc(NC(C)c3ccc(-c4ccccc4CN4CCC(C(N)=O)CC4)s3)c2cc1OC (stereo not drawn) [Example 179, 1-[2-(5-{1-[(6,7-dimethoxy-2-methylquinazolin-4-yl)amino]ethyl}thiophen-2-yl)benzyl]piperidine-4-carboxamide] | 245 nM | 90.4 nM |  |  |
| COc1cc2nc(C)nc(NC(C)c3ccc(-c4ccccc4CCO)s3)c2cc1OC (stereo not drawn) [Example 180, 2-[2-(5-{1-[(6,7-dimethoxy-2-methylquinazolin-4-yl)amino]ethyl}thiophen-2-yl)phenyl]ethanol] | 921 nM | 241 nM |  |  |
| COc1cc2nc(C)nc(NC(C)c3ccc(-c4cccc(CCO)c4)s3)c2cc1OC (stereo not drawn) [Example 181, 2-[3-(5-{1-[(6,7-dimethoxy-2-methylquinazolin-4-yl)amino]ethyl}thiophen-2-yl)phenyl]ethanol] | 6510 nM | 3500 nM |  |  |

| SMILES | IC50 [1] | IC50 [2] | inhibition at 20 µM [1] | inhibition at 20 µM ([2]; read-out: Assay 1 (KRAS-SOS Interaction) activity expressed as % inhibition at 20 μM) |
| --- | --- | --- | --- | --- |
| COc1cc2nc(C)nc(NC(C)c3ccc(-c4ccccc4CN4CC5(COC5)C4)s3)c2cc1OC (stereo not drawn) [Example 182, 6,7-di methoxy-2-methyl-N-[1-{5-[2-(2-oxa-6-azaspiro[3.3]hept-6-ylmethyl)phenyl]thiophen-2-yl}ethyl]quinazolin-4-amine] | 123 nM | 51 nM |  |  |
| COc1cc2nc(C)nc(NC(C)c3cc(C)c(Br)s3)c2cc1OC (stereo not drawn) [Example 183, N-[1-(5-bromo-4-methylthiophen-2-yl)ethyl]-6,7-dimethoxy-2-methylquinazolin-4-amine] | 4200 nM | 2110 nM |  |  |
| COc1cc2nc(C)nc(NC(C)c3ccc(-c4ccccc4CN4CCCC4)s3)c2cc1OC (stereo not drawn) [Example 184, 6,7-dimethoxy-2-methyl-N-[1-{5-[2-(pyrrolidin-1-ylmethyl)phenyl]thiophen-2-yl}ethyl]quinazolin-4-amine] | 106 nM | 41.6 nM |  |  |
| COc1cc2nc(C)nc(NC(C)c3ccc(-c4ccccc4CN4CCC[C@H]4CN(C)C)s3)c2cc1OC (stereo partly drawn) [Example 185, N-[1-{5-[2-({(2S)-[(dimethylamino)methyl]pyrrolidin-1-yl}methyl)phenyl]thiophen-2-yl}ethyl]-6,7-dimethoxy-2-methylquinazolin-4-amine] | 344 nM | 78.8 nM |  |  |
| Cc1nc(N[C@H](C)c2cccc3ccccc23)c2ccccc2n1 [Example 186, 2-methyl-N-[(1R)-1-(naphthalen-1-yl)ethyl]quinazolin-4-amine] | 3310 nM | 9940 nM |  |  |
| COc1cc2nc(C)nc(N[C@H](C)c3ccc(Br)cc3)c2cc1OC [Example 187, N-[(1R)-1-(4-bromophenyl)ethyl]-6,7-dimethoxy-2-methylquinazolin-4-amine] | 562 nM | 476 nM |  |  |
| COc1cc2nc(C)nc(N[C@H](C)c3ccc(S(C)(=O)=O)cc3)c2cc1OC [Example 188, 6,7-dimethoxy-2-methyl-N-{(1R)-1-[4-(methylsulfonyl)phenyl]ethyl}quinazolin-4-amine] | 16700 nM | 15700 nM |  |  |
| COc1cc2nc(C)nc(N[C@H](C)c3cccc(C)c3)c2cc1OC [Example 190, 6,7-dimethoxy-2-methyl-N-[(1R)-1-(3-methylphenyl)ethyl]quinazolin-4-amine] | 153 nM | 175 nM |  |  |
| COc1cc2nc(C)nc(N[C@H](C)c3cccc(Br)c3)c2cc1OC [Example 191, N-[(1R)-1-(3-bromophenyl)ethyl]-6,7-dimethoxy-2-methylquinazolin-4-amine] | 245 nM | 174 nM |  |  |
| COc1cc2nc(C)nc(N[C@H](C)c3ccc(C(N)=O)cc3)c2cc1OC [Example 192, 4-{(1R)-1-[(6,7-dimethoxy-2-methylquinazolin-4-yl)amino]ethyl}benzamide] | 4090 nM | 4590 nM |  |  |
| COc1cc2nc(C)nc(N[C@H](C)c3cccc(-c4ccccc4)c3)c2cc1OC [Example 193, N-[(1R)-1-(biphenyl-3-yl)ethyl]-6,7-dimethoxy-2-methylquinazolin-4-amine] | 405 nM | 416 nM |  |  |
| COc1cc2nc(C)nc(N[C@H](C)c3cccc(C#N)c3)c2cc1OC [Example 194, 3-{(1R)-1-[(6,7-dimethoxy-2-methylquinazolin-4-yl)amino]ethyl}benzonitrile] | 594 nM | 493 nM |  |  |
| COc1cc2nc(C)nc(N[C@H](C)c3ccc(C)cc3)c2cc1OC [Example 195, 6,7-dimethoxy-2-methyl-N-[(1R)-1-(4-methylphenyl)ethyl]quinazolin-4-amine] | 635 nM | 300 nM |  |  |
| COc1cc2nc(C)nc(N[C@H](C)c3ccc(-c4ccccc4)cc3)c2cc1OC [Example 196, N-[(1R)-1-(biphenyl-4-yl)ethyl]-6,7-dimethoxy-2-methylquinazolin-4-amine] | 1090 nM | 2420 nM |  |  |
| COc1cc2nc(C)nc(N[C@H](C)c3ccc(C4CC4)cc3)c2cc1OC [Example 197, N-[(1R)-1-(4-cyclopropylphenyl)ethyl]-6,7-dimethoxy-2-methylquinazolin-4-amine] | 303 nM | 268 nM |  |  |
| COc1cc2nc(C)nc(N[C@H](C)c3cccc(S(C)(=O)=O)c3)c2cc1OC [Example 198, 6,7-dimethoxy-2-methyl-N-{(1R)-1-[3-(methylsulfonyl)phenyl]ethyl}quinazolin-4-amine] | 518 nM | 291 nM |  |  |
| COc1cc2nc(C)nc(N[C@H](C)c3cccc(C(N)=O)c3)c2cc1OC [Example 199, 3-{(1R)-1-[(6,7-dimethoxy-2-methylquinazolin-4-yl)amino]ethyl}benzamide] | 1420 nM | 1730 nM |  |  |
| COc1cc2nc(C)nc(N[C@H](C)c3ccc(C4=CCN(C)CC4)cc3)c2cc1OC [Example 201, 6,7-dimethoxy-2-methyl-N-{(1R)-1-[4-(1-methyl-1,2,3,6-tetrahydropyridin-4-yl)phenyl]ethyl}quinazolin-4-amine] |  | 19700 nM | 20% |  |
